Data on 54 molecules can be found in EP4711356A1, “TETRAHYDROCARBAZOLE DERIVATIVE, PHARMACEUTICAL COMPOSITION, AND USE THEREOF” (Nain Biotech (Hangzhou) Co., Ltd., priority 2023, dated 2024).

Some results are limits rather than exact numbers.

One may read the IC50 as the concentration at which inhibition is half-maximal.

This assay concerns HeLa cells. The assay can be described thus: Cell-based pharmacodynamic assay (CellTiter-Glo proliferation inhibition), HeLa. The conditions noted are these: human cervical cancer HeLa cells; 72 hours incubation; CellTiter-Glo luminescence; read-out: IC50 against HeLa cells. The method, then:
Complete media such as RPMI 1640 (Gibco, A1049101), EMEM (ATCC, 30-2003), DMEM (Gibco, C11995500CP), McCoy's 5A (Gibco, 16600082), and F-12K (ATCC, 30-2004) were prepared by supplementing with varying concentrations of FBS (Biological Industries, 04-002-1A) and 1% Penicillin-Streptomycin (Gibco, 15140122) and was thoroughly mixed. Tumor cell lines including HeLa (ATCC, CCL-2; EMEM + 10% FBS), TOV-21G (Cobioer, CBP60292; 1:1 mixture of MCDB 105 and Medium 199 + 15% FBS), OVCAR-3 (ATCC, HTB-161; RPMI 1640 + 20% FBS + 0.01 mg/ml bovine insulin), SK-OV-3 (ATCC, HTB-77; McCoy's 5A + 10% FBS), A2780 (Cobioer, CBP60283; RPMI 1640 + 10% FBS), OC316 (Cobioer, CBP60620; RPMI 1640 + 10% FBS), HuH-7 (Cobioer, CBP60202; DMEM + 10% FBS), SNU-398 (ATCC, CRL-2233; RPMI 1640 + 10% FBS), NCI-H2286 (ATCC, CRL-5938; RPMI 1640 + 5% FBS), NCI-H82 (ATCC, HTB-175; RPMI 1640 + 10% FBS), A549 (ATCC, CCL-185; F-12K + 10% FBS), SK-MEL-3 (ATCC, HTB-69; McCoy's 5A + 15% FBS), PSN-1 (Cobioer, CBP61215; RPMI 1640 + 10% FBS), LoVo (ATCC, CCL-229; F-12K + 10% FBS), DLD-1 (ATCC, CCL-221; RPMI 1640 + 10% FBS), HCT-15 (ATCC, CCL-225; RPMI 1640 + 10% FBS), A498 (ATCC, HTB-44; EMEM + 10% FBS), LNCaP (ATCC, CRL-1740; RPMI 1640 + 10% FBS), SNU-1 (ATCC, CRL-5971; RPMI 1640 + 10% FBS), SCC-9 (Cobioer, CBP60428; DMEM/F12 (1:1) + 10% FBS + 0.5 mM sodium pyruvate + 400 ng/ml hydrocortisone), SU-DHL-5 (ATCC, CRL-2958; RPMI 1640 + 10% FBS), Toledo (ATCC, CRL-2631; RPMI 1640 + 10% FBS), and SJCRH30 (ATCC, CRL-2061; RPMI 1640 + 10% FBS) were thawed. Cells were passaged approximately twice, and those in good growth condition (typically passages 4-6) were selected for experiments. The medium was aspirated, and the cells were washed once with 0.25% trypsin (Invitrogen, 25200-072). The waste liquid was discarded, and 3 mL of fresh trypsin was added to the culture flask for digestion. When the cells began to detach, 9 mL of complete medium was added to neutralize the trypsin digestion, and the mixture was gently mixed. The cell suspension was transferred to a centrifuge tube using a pipette and centrifuged at 1000 rpm for 5 minutes. The supernatant was discarded, and 5 mL of medium was added to the centrifuge tube to gently resuspend the cells evenly. The cell concentration was adjusted to 1×10^4/mL-3×10^4/mL using a cell counter (Beckman Coulter, Vi-cellTM XR). The cell suspension was added to a 96-well plate (Corning, 3903) at 100 µL/well. The plate was labeled with details such as cell name, seeding density, and date, and then placed in a CO2 incubator (Thermo, Thermo 3111) overnight. Test compounds were prepared as 20 mM stock solutions in DMSO (Sigma, D4540-1L) and added to the corresponding cell wells using an HPD300 automated dispenser according to the designed layout. The plates were incubated in a 37°C, 5% CO2 incubator for 72 hours. CellTiter-Glo Buffer was thawed at room temperature. The lyophilized CellTiter-Glo substrate was equilibrated to room temperature. The CellTiter-Glo Buffer was added to the CellTiter-Glo substrate and thoroughly mixed. The cell plates were removed and equilibrated to room temperature, and 50 µL of the mixed CellTiter-Glo reagent was added to each well. The plates were protected from light and shaken for 10 minutes, followed by incubation for 10 minutes. The plates were placed in an Enspire reader (luminescence measurement time: 0.5 s) to record luminescence results. The inhibition rate was calculated using the following formula: Inhibition rate (%) = (1 - (RLU_compound - RLU_blank) / (RLU_DMSO - RLU_blank)) × 100%. Dose-response curves were plotted using XLFit to calculate IC50 values. A four-parameter model was used: [fit = (A + ((B - A) / (1 + ((C/x) ^ D)))]. The test results for HeLa cells are shown in Table 1. Table 1: IC50 values of some test compounds against human cervical cancer HeLa cells
A general note: ATP-based viability assays read luminescence as a measure of living cells.
In the case of `O=C1CCCc2c1[nH]c1cccc(N3CC[C@@H](CO)C3)c21` [Compound B193], the IC50 is ≤ 200 nM.

As to `CCOC(=O)c1cccc2c1c1c(n2C(=O)c2ccc(OC)cc2)C(=O)CCC1` [Compound C21], the IC50 is ≤ 200 nM. With `CS(C)(=O)=Nc1cccc2[nH]c3c(c12)CCCC3=O` [Compound B80], the 50% inhibitory concentration (IC50) was ≤ 500 nM. `C[C@@H](O)COC(=O)c1cccc2[nH]c3c(c12)CCCC3=O` [Compound B147]: the IC50 is ≤ 200 nM. As for `N#Cc1cccc2[nH]c3c(c12)CCCC3=O` [Compound B61], the figure is ≤ 200 nM.

With `Cc1ccc2[nH]c3c(c2c1)CCCC3=NC(Cc1ccc(O)cc1)C(=O)OC(C)(C)C` (stereo not drawn) [Compound E40], the IC50 is ≤ 200 nM. As for `CCOC(=O)c1cccc2c1c1c(n2C(=O)[C@@H](C)OCc2ccccc2)C(=O)CCC1` [Compound C58], the figure is ≤ 200 nM.

For `C=C=Cn1cc(-c2cccc3[nH]c4c(c23)CCCC4=O)cn1` [Compound B173], the IC50 was ≤ 200 nM.

Take `O=C1CCCc2c1[nH]c1cccc(C(=O)OCCO)c21` [Compound B31]: the IC50 is ≤ 200 nM. In the case of `C#CCOCC(C)OC(=O)c1cccc2[nH]c3c(c12)CCCC3=O` (racemic) [Compound B111] it was ≤ 200 nM; in that of `CCOC(=O)c1cccc2c1c1c(n2C(=O)OC2CCN(C)CC2)C(=O)CCC1` [Compound C18], ≤ 200 nM; in that of `CCOC(=O)c1cccc2c1c1c(n2C(=O)CN2CCN(C)CC2)C(=O)CCC1` [Compound C34], ≤ 200 nM. In the case of `CCOC(=O)c1cccc2c1c1c(n2C(=O)C2CC3(CC(C(=O)O)C3)C2)C(=O)CCC1` (stereo not drawn) [Compound C56] it was ≤ 200 nM; in that of `COC(=O)c1cccc2[nH]c3c(c12)CCCC3=NCCO` [Compound E30], ≤ 200 nM; in that of `Cc1nnc(-c2cccc3[nH]c4c(c23)CCCC4=O)o1` [Compound B70], ≤ 200 nM. Regarding `CCOC(=O)c1cccc2c1c1c(n2C(=O)/C=C/c2ccc(OC)c(OC)c2)C(=O)CCC1` [Compound C59], the IC50 is ≤ 200 nM. In the case of `Cc1ccc2[nH]c3c(c2c1)CCCC3=NCC(=O)OC(C)(C)C` [Compound E10] it was ≤ 200 nM. In the case of `C#CCC(C)OC(=O)c1cccc2[nH]c3c(c12)CCCC3=O` (racemic) [Compound B114] it was ≤ 200 nM; in that of `CC(C)(C)COC(=O)c1cccc2[nH]c3c(c12)CCCC3=O` [Compound B40], ≤ 200 nM. For `O=C1CCCc2c1[nH]c1cccc(-c3cnn(C(F)F)c3)c21` [Compound B156], the IC50 is ≤ 200 nM. In the case of `Cc1ccc2[nH]c3c(c2n1)CCCC3=NCCO` [Compound E50] it was ≤ 200 nM. As for `Cc1ccc2[nH]c3c(c2c1)CCCC3=NC1(CO)CCC1` [Compound E08], the figure is ≤ 200 nM.

With `O=C1CCCc2c1[nH]c1cccc(CO)c21` [Compound B56], the IC50 was ≤ 200 nM. Take `O=C1CCCc2c1[nH]c1cccc(C(=O)O[C@@H](CO)c3ccccc3)c21` [Compound B189]: the IC50 is ≤ 500 nM.

In the case of `O=C1CCCc2c1[nH]c1cccc(N3CCn4cnnc4C3)c21` [Compound B19], the IC50 was ≤ 200 nM. As for `O=C1CCCc2c1[nH]c1cccc(C(=O)OC3CCC(O)C3)c21` (stereo not drawn) [Compound B177], the half-inhibitory concentration (IC50) was ≤ 200 nM.

As for `Cc1ccc2[nH]c3c(c2c1)CCCC3=NCC(O)CO` (racemic) [Compound E01], the IC50 was ≤ 500 nM.

Turning to `O=C1CCCc2c1[nH]c1cccc(C(=O)OCC(F)(F)F)c21` [Compound B46], the IC50 was ≤ 200 nM.

Take `CCOC(=O)c1cccc2c1c1c(n2C(=O)c2cc(C)cc(OCC)n2)C(=O)CCC1` [Compound C32]: the IC50 is ≤ 200 nM.

For `O=C1CCCc2c1[nH]c1cccc(C(=O)OC3CC(F)C3)c21` (stereo not drawn) [Compound B139], the IC50 was ≤ 200 nM. As for `CCOC(=O)c1cccc2c1c1c(n2C(=O)C2(C)CC2(F)F)C(=O)CCC1` (racemic) [Compound C28], the IC50 is ≤ 200 nM. `O=C1CCCc2c1[nH]c1cccc(N3CCOCC3)c21` [Compound B63]: the IC50 was ≤ 200 nM. As for `CCOC(=O)c1c(C)ccc2[nH]c3c(c12)CCCC3=O` [Compound B117], the figure is ≤ 200 nM; as for `O=C1CCCc2c1[nH]c1cccc(-c3ccncc3)c21` [Compound B96], ≤ 200 nM; as for `CCC(OC(=O)c1cccc2[nH]c3c(c12)CCCC3=O)C1CC1` (racemic) [Compound B138], ≤ 500 nM. In the case of `CCOC(=O)c1cccc2c1c1c(n2C(=O)C2CCCCN2C)C(=O)CCC1` (racemic) [Compound C33] it was ≤ 200 nM; in that of `COc1ccc2[nH]c3c(c2c1-c1cnn(C)n1)CCCC3=O` [Compound B134], ≤ 200 nM. As to `Cc1ccc2[nH]c3c(c2c1)CCC1(CC1)C3=O` [Compound B14], the IC50 was ≥ 5000 nM. With `Cc1ccc2[nH]c3c(c2c1)CCCC3=NC(C(=O)OC(C)(C)C)C(C)C` (stereo not drawn) [Compound E56], the IC50 is ≤ 200 nM.

Regarding `CC(O)c1cccc2[nH]c3c(c12)CCCC3=O` (stereo not drawn) [Compound B105], the IC50 is ≤ 500 nM. As for `Cc1ccc2[nH]c3c(c2c1)CCCC3=NC1CC(C(N)=O)C1` (stereo not drawn) [Compound E09], the 50% inhibitory concentration (IC50) was ≤ 500 nM. Consider `Cc1ccc2[nH]c3c(c2c1)C(C)CCC3=NCC(=O)OC(C)(C)C` (stereo not drawn) [Compound E49], for which the IC50 was ≤ 500 nM. As for `Cc1noc(-c2cccc3[nH]c4c(c23)CCCC4=O)n1` [Compound B69], the figure is ≤ 200 nM; as for `CCOC(=O)c1cccc2c1c1c(n2C(=O)C(CO)c2ccccc2)C(=O)CCC1` (racemic) [Compound C48], ≤ 200 nM.

Turning to `O=C1CCCc2c1[nH]c1cccc(-c3ccccc3)c21` [Compound B48], the IC50 is ≤ 500 nM. With `Cc1nsc(-c2cccc3[nH]c4c(c23)CCCC4=O)n1` [Compound B71], the IC50 is ≤ 200 nM. As for `Cn1cc(-c2cccc3c2c2c(n3C(=O)C3CC(F)(F)C3)C(=O)CCC2)cn1` [Compound C60], the half-maximal inhibitory concentration (IC50) is ≤ 200 nM. In the case of `CCOC(=O)c1cccc2c1c1c(n2C(=O)C#CC2(C)COC2)C(=O)CCC1` [Compound C43] it was ≤ 200 nM; in that of `CC(=O)c1cccc2[nH]c3c(c12)CCCC3=O` [Compound B82], ≤ 200 nM. In the case of `O=C1CCCc2c1[nH]c1cccc(C(=O)OC3COCC3O)c21` (stereo not drawn) [Compound B186] it was ≤ 500 nM. In the case of `Cc1ccc2[nH]c3c(c2n1)CCCC3=O` [Compound B01] it was ≤ 200 nM; in that of `Cc1cc(COC(=O)c2cccc3[nH]c4c(c23)CCCC4=O)n[nH]1` [Compound B163], ≤ 200 nM; in that of `CCOC(=O)c1cccc2c1c1c(n2C(=O)C2CCOCC2)C(=O)CCC1` [Compound C17], ≤ 200 nM. On to `O=C1CCCc2c1[nH]c1cccc(C(=O)OC3CC3)c21` [Compound B26], for which the IC50 is ≤ 200 nM.
